ChEMBL document CHEMBL3286285, “A novel 2-oxoindolinylidene inhibitor of bacterial MurD ligase: Enzyme kinetics, protein-inhibitor binding by NMR and a molecular dynamics study” (Eur J Med Chem, 2014)
In brackets after ≈: the same amount, converted by molar mass. Activity calls are given as the source filed them. The calls are words filed in the database; no cut-off is given here.

Tests used:
[1] = molecular target: T1, UDP-N-acetylmuramoylalanine--D-glutamate ligase (Escherichia coli K-12, UniProt P14900); experiment: Binding affinity to 6x His-tagged and 15N/13C-labeled Escherichia coli MurD ligase measured at NMR signal 56 by 1H/13C-HSQC 2D NMR spectroscopy
T1 sequence (P14900 whole entry): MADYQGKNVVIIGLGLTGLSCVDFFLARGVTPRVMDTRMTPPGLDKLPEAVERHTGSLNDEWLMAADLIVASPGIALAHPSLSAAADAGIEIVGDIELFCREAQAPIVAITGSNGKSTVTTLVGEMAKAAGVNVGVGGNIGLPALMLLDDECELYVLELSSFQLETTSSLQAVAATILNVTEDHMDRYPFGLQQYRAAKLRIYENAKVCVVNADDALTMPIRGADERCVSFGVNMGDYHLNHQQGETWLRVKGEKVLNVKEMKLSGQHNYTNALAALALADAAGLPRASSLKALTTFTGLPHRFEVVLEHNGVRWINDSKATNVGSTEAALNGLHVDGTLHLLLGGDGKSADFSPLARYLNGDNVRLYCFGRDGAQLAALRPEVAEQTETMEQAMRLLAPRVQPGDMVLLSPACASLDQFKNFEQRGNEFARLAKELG

[2] = molecular target: T1, UDP-N-acetylmuramoylalanine--D-glutamate ligase; experiment: Binding affinity to 6x His-tagged and 15N/13C-labeled Escherichia coli MurD ligase measured at NMR signal 9 by 1H/13C-HSQC 2D NMR spectroscopy
[3] = molecular target: T1, UDP-N-acetylmuramoylalanine--D-glutamate ligase; experiment: Binding affinity to 6x His-tagged and 15N/13C-labeled Escherichia coli MurD ligase measured at NMR signal 13 by 1H/13C-HSQC 2D NMR spectroscopy
[4] = molecular target: T1, UDP-N-acetylmuramoylalanine--D-glutamate ligase; experiment: Binding affinity to 6x His-tagged and 15N/13C-labeled Escherichia coli MurD ligase measured at NMR signal 123 by 1H/13C-HSQC 2D NMR spectroscopy
[5] = molecular target: T1, UDP-N-acetylmuramoylalanine--D-glutamate ligase; experiment: Binding affinity to 6x His-tagged and 15N/13C-labeled Escherichia coli MurD ligase measured at NMR signal 4 by 1H/13C-HSQC 2D NMR spectroscopy
Escherichia coli [6] = experiment: Antibacterial activity against Escherichia coli ATCC 35218 by broth microdilution method; type: functional
[7] = molecular target: T2, UDP-N-acetylmuramoylalanine--D-glutamate ligase (Escherichia coli K-12) (UniProt P14900); experiment: Binding affinity to Escherichia coli MurD ligase by transferred NOESY NMR spectroscopy
T2 sequence (whole entry): T1 sequence (P14900 whole entry)

[8] = molecular target: T1, UDP-N-acetylmuramoylalanine--D-glutamate ligase; experiment: Binding affinity to 6x His-tagged and 15N/13C-labeled Escherichia coli MurD ligase by 1H/13C-HSQC 2D NMR spectroscopy
Streptococcus pneumoniae = experiment: Antibacterial activity against Streptococcus pneumoniae ATCC 49619 by broth microdilution method; type: functional
Haemophilus influenzae [9] = experiment: Antibacterial activity against Haemophilus influenzae Lek 93 by broth microdilution method; type: functional
Haemophilus influenzae [10] = experiment: Antibacterial activity against Haemophilus influenzae ATCC 49247 by broth microdilution method; type: functional
[11] = molecular target: T1, UDP-N-acetylmuramoylalanine--D-glutamate ligase; experiment: Competitive inhibition of Escherichia coli MurD ligase activity using UDP-N-acetylmuramyl-L-alanine as a substrate
[12] = molecular target: T1, UDP-N-acetylmuramoylalanine--D-glutamate ligase; experiment: Binding affinity to 6x His-tagged and 15N/13C-labeled Escherichia coli MurD ligase measured at NMR signal 71 by 1H/13C-HSQC 2D NMR spectroscopy
Escherichia coli [13] = experiment: Antibacterial activity against Escherichia coli ATCC 25922 by broth microdilution method; type: functional
[14] = molecular target: T1, UDP-N-acetylmuramoylalanine--D-glutamate ligase; experiment: Binding affinity to 6x His-tagged and 15N/13C-labeled Escherichia coli MurD ligase measured at NMR signal 43 by 1H/13C-HSQC 2D NMR spectroscopy
[15] = molecular target: T2, UDP-N-acetylmuramoylalanine--D-glutamate ligase (Escherichia coli K-12); experiment: Binding affinity to Escherichia coli MurD ligase by saturation transfer difference NMR spectroscopy
Enterococcus faecalis = experiment: Antibacterial activity against Enterococcus faecalis ATCC 29212 by broth microdilution method; type: functional
Staphylococcus aureus = experiment: Antibacterial activity against Staphylococcus aureus ATCC 25923 by broth microdilution method; type: functional
Streptococcus pyogenes = experiment: Antibacterial activity against Streptococcus pyogenes ATCC 19615 by broth microdilution method; type: functional

Compound: N#Cc1ccc(COc2ccc3cc(S(=O)(=O)N[C@H](CCC(=O)O)C(=O)O)ccc3c2)c(F)c1
- Kd [1]: 5.5 µM
- Kd [2]: 2.2 µM
- Kd [3]: 7 µM

Compound: CCCCOc1ccc2cc(S(=O)(=O)N[C@H](CCC(=O)O)C(=O)O)ccc2c1
- Kd [4]: 120 µM
- Kd [5]: 210 µM

Compound: O=C1Nc2ccc([N+](=O)[O-])cc2/C1=C1/SC(=S)N(NC(=O)c2cccnc2)C1=O
- MIC (Escherichia coli [6]): > 128 mg/L
- Activity [7]: Active
- Kd [8]: 98 µM
- MIC (Streptococcus pneumoniae): > 128 mg/L
- MIC (Haemophilus influenzae [9]): > 128 mg/L
- MIC (Haemophilus influenzae [10]): 128 mg/L (≈ 299 µM)
- Ki [11]: 115 µM
- Kd [12]: 106 µM
- Kd [5]: 111 µM
- MIC (Escherichia coli [13]): > 128 mg/L
- Kd [14]: 79 µM
- Activity [15]: Active
- MIC (Enterococcus faecalis): 128 mg/L (≈ 299 µM)
- MIC (Staphylococcus aureus): > 128 mg/L
- MIC (Streptococcus pyogenes): > 128 mg/L
